Test results taken from ChEMBL document CHEMBL5465560, “Selectivity Literature for EUbOPEN Chemogenomic Library” (2024).
Values belong to the molecule of their own block, whether it stands above or below them.

Tests used:
Peregrin (Homo sapiens) = target: T1, Peregrin (Homo sapiens) (UniProt P55201); test: Selectivity interaction (Bromodomain panel (DSF asssay)) EUB0000270b BRPF1
T1 sequence (whole entry): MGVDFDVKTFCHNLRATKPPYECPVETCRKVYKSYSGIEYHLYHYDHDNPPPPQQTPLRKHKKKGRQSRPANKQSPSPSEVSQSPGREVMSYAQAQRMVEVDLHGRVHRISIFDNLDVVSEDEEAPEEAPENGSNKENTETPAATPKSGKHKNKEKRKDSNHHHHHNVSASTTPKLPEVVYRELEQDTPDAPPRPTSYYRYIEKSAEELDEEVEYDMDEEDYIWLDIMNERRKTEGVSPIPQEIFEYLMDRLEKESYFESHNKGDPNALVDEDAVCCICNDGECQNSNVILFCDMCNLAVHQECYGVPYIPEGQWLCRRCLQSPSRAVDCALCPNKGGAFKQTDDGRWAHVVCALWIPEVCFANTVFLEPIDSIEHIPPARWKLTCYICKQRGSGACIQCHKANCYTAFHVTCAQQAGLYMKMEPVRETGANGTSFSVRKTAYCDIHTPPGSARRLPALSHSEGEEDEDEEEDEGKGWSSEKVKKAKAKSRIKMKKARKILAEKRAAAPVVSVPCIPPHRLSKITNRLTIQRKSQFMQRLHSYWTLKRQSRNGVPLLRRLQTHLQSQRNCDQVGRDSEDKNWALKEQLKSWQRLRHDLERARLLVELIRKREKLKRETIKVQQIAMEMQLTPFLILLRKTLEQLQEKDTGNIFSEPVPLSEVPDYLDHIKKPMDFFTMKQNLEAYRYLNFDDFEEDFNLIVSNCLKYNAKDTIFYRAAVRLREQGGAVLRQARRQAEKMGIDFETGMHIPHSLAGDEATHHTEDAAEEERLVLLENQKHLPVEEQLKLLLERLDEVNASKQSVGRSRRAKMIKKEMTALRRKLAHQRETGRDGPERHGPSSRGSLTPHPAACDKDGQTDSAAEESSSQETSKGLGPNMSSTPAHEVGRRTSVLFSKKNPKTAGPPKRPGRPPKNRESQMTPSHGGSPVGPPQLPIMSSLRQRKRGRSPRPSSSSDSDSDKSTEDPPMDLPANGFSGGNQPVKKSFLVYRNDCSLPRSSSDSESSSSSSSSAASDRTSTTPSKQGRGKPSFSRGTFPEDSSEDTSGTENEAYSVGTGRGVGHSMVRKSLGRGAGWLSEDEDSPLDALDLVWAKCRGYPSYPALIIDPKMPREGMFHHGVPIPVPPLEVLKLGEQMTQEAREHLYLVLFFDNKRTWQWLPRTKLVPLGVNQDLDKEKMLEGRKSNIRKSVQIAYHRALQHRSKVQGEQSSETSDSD

[1] = target: T2, SNF-related serine/threonine-protein kinase (Homo sapiens) (UniProt Q9NRH2); test: Selectivity interaction (KinomeScan (DiscoverX)) EUB0001619a SNRK; settings: at 1 µM
T2 sequence (whole entry): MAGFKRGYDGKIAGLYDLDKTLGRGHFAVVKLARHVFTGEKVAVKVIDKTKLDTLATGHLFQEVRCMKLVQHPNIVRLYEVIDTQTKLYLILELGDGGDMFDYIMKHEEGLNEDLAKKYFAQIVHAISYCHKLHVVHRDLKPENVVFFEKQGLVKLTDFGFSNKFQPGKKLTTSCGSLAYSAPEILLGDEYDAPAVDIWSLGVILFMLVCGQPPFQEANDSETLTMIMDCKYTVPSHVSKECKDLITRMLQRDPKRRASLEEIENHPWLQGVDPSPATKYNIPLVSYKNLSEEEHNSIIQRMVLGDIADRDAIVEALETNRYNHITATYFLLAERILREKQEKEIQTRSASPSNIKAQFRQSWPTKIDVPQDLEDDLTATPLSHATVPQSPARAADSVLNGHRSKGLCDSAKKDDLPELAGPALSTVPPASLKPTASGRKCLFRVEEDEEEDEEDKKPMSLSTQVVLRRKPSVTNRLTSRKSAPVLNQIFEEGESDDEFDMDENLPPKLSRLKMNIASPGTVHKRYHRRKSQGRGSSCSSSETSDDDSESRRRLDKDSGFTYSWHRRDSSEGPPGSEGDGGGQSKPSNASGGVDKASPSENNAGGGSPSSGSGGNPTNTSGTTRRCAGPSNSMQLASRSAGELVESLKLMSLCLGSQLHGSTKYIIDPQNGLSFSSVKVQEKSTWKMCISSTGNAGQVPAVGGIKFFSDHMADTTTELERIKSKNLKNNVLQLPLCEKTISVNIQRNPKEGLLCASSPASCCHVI

[2] = target: T3, Ephrin type-A receptor 8 (Homo sapiens) (UniProt P29322); test: Selectivity interaction (KinomeScan (DiscoverX)) EUB0000607a EPHA8; settings: at 10 µM
T3 sequence (whole entry): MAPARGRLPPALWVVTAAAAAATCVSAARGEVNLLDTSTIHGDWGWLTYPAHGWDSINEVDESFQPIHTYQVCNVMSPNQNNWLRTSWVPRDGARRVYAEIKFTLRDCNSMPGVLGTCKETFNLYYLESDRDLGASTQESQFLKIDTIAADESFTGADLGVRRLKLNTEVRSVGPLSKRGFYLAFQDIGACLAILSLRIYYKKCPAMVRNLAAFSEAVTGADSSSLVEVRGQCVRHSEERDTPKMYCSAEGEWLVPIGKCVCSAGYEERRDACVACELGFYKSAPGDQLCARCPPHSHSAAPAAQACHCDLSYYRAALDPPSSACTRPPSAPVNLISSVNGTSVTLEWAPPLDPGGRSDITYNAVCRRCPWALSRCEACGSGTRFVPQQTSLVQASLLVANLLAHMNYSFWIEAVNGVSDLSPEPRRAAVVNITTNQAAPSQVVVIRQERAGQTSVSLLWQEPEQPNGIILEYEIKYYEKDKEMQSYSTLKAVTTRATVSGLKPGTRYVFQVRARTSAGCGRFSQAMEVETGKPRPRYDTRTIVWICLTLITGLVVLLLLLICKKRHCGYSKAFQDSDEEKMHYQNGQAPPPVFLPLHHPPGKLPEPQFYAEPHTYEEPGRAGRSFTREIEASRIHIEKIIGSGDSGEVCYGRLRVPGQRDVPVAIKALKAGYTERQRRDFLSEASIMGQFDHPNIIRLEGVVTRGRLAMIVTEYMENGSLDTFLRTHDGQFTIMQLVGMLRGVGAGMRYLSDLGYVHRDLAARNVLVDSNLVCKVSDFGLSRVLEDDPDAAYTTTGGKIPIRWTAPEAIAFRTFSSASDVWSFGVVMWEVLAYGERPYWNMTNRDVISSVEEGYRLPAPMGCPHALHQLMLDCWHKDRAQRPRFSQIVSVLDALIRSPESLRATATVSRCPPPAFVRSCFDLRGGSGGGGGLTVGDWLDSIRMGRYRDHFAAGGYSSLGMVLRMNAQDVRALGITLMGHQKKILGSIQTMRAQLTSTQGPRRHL

- dTM (Peregrin (Homo sapiens)): -1.98 K
SMILES: Cc1cc(CN)cc(C)c1-c1ncn(C)c1-c1cncn1C

SMILES: N#Cc1cccc(-c2c[nH]c3ncnc(N4CCOCC4)c23)c1
- % of control [1]: 100%

SMILES: CNC(=O)Nc1ccc(-c2nc(N3CC4CCC(C3)O4)c3cnn(C4CCC5(CC4)OCCO5)c3n2)cc1
- % of control [2]: 81%
